Measured values published in patent publication US9756860B2, “Antimicrobial composition of ortho phenylphenol and silver” (Rohm and Haas Company, priority 2011, dated 2017).
Where two headings read alike, the source gives them in different places.

Columns and labels:
Assay type in all cases: cell-based
[1] = system: Candida albicans ATCC#10203; test: MIC / synergy index test in 96 well microtiter plates, yeast; conditions: C. albicans, ppm active; for MIC: Candida albicans, ATCC10203, alone, read-out: MIC of compound acting alone (CA / CB)
Description: (§1) Ortho phenylphenol and silver are evaluated for synergy by determining the synergy index (S.I.) of the combination. Synergy index is calculated based on minimum inhibitory concentrations (MIC) of two antimicrobial compounds (A and B) alone and in combinations. The tests organisms are Gram negative bacteria (Pseudomonas aeruginosa), Gram positive bacteria (Staphylococcus aureus), yeast (Candida albicans) and mold (Aspergillus niger). Contact time for the bacteria is 24 and 48 hours, yeast is 48 and 72 hrs, and 3 and 7 days for mold. The test is carried out in 96 well microtiter plates.
(§2) SI is calculated as follows: Ca/CA+Cb/CB=Synergy Index (“SI”) Wherein: • CA=concentration of compound A in ppm, acting alone, which produced an end point (MIC of Compound A). • Ca=concentration of compound A in ppm, in the mixture, which produced an end point. • CB=concentration of compound B in ppm, acting alone, which produced an end point (MIC of Compound B). • Cb=concentration of compound B in ppm, in the mixture, which produced an end point. When the sum of Ca/CA and Cb/CB is greater than one, antagonism is indicated.

[2] = system: Staphylococcus aureus ATCC# 6538; test: MIC / synergy index test in 96 well microtiter plates, Gram positive bacteria; conditions: S. aureus, ppm active; for MIC: Staphylococcus aureus, ATCC6538, alone, read-out: MIC of compound acting alone (CA / CB)
Description: as §1, §2

[3] = system: Aspergillus niger ATCC# 16404; test: MIC / synergy index test in 96 well microtiter plates, mold; conditions: A. niger, ppm active
Description: as §1, §2

[4] = system: Pseudomonas aeruginosa ATCC # 15442; test: MIC / synergy index test in 96 well microtiter plates, Gram negative bacteria; conditions: Ps. aeruginosa, ppm active; for MIC: Pseudomonas aeruginosa, ATCC15442, alone, read-out: MIC of compound acting alone (CA / CB)
Description: as §1, §2

O=[N+]([O-])[O-].[Ag+] [AgNO3, Silver Nitrate]
MIC of compound acting alone (CA / CB) ([1]; contact time 48 hrs): 10 ppm | MIC of compound acting alone (CA / CB) ([1]; contact time 72 hrs): 10 ppm | MIC of compound acting alone (CA / CB) ([2]; contact time 24 hrs): 6 ppm | MIC of compound acting alone (CA / CB) ([2]; contact time 48 hrs): 8 ppm | MIC of compound acting alone (CA / CB) ([3]; contact time 3rd day): 3 ppm | MIC of compound acting alone (CA / CB) ([3]; contact time 7th day): 10 ppm | MIC of compound acting alone (CA / CB) ([4]; contact time 24 hrs): 0.4 ppm | MIC of compound acting alone (CA / CB) ([4]; contact time 48 hrs): 1 ppm

Oc1ccccc1-c1ccccc1 [OPP, ortho-phenylphenol]
MIC ([1]; contact time 48 hrs): 150 µg/mL | MIC ([1]; contact time 72 hrs): 150 µg/mL | MIC ([2]; contact time 24 hrs): 200 µg/mL | MIC ([2]; contact time 48 hrs): 200 µg/mL | MIC of compound acting alone (CA / CB) ([3]; contact time 3rd day): 75 ppm | MIC ([3]; Aspergillus niger, ATCC16404, contact time 7th day, alone, read-out: MIC of compound acting alone (CA / CB)): 75 µg/mL | MIC ([4]; contact time 24 hrs): 500 µg/mL | MIC ([4]; contact time 48 hrs): 500 µg/mL
